Experimental data from patent US20180360767A1, “BIOCOMPATIBLE PARTICLES AND METHODS OF MAKING AND USE THEREOF” (priority 2015, published 2018).

Experiments:
[1] = system: doxorubicin-resistant HeLa cells; assay: In vitro cytotoxicity on doxorubicin-resistant cells; format: cell-based; conditions: even at a concentration of 5 mg L^−1
Protocol: Next, the cytotoxicity of doxorubicin-loaded nanospheres towards HeLa cells was evaluated with 3-(4, 5-dimethylthiazol-2-yl)-2, 5-diphenyltetrazolium bromide (MTT) assay. HeLa cells (1×10^4 cells per well) were seeded in the 96-well plates. After culture for 24 h, the cells were exposed to the doxorubicin solution and doxorubicin-loaded liquid metal nanoparticles with different concentrations of doxorubicin for 24 h, followed by adding 20 μl of the MTT solution (5 mg mL^−1). After 4 h of incubation, the medium was removed, and the cells were mixed with 150 μl of dimethyl sulfoxide. The absorbance was measured at a test wavelength of 570 nm and a reference wavelength of 630 nm by a microplate reader (Infinite M200 PRO, Tecan).
Next, the in vitro cytotoxicity of doxorubicin loaded ligand-capped liquid metal nanoparticles towards doxorubicin-resistant HeLa cells was investigated.

[2] = in vivo; conditions: mouse, iv, 2 mg/kg
[3] = Pharmacokinetics, doxorubicin concentration in blood plasma after intravenous injection; conditions: mouse, 2 mg/kg

Cmax [2]: 1450 ± 60 ng/mL
MRT [3]: 2.8 ± 0.61 h
half-life [3]: 1.11 ± 0.02 h
SMILES: COc1cccc2c1C(=O)c1c(O)c3c(c(O)c1C2=O)C[C@@](O)(C(=O)CO)C[C@@H]3O[C@H]1C[C@H](N)[C@H](O)[C@H](C)O1 [Doxorubicin]
cytotoxicity [1]: did not show any obvious cytotoxicity
